Assay results from patent US12371454B2, “Cyclic peptide compound having Kras inhibitory action” (priority 2019, dated 2025).
Starred links: 1 amine or outer side, 2 acyl side, 3 side chain; linkers in the order of their positions; H or OH if unused. Positions of bridges follow the written chain, without caps; N, C: chain ends. Non-standard residues stand in square brackets, D forms with d. Residues, ends and D or L forms follow the SMILES beside them. *: point of attachment. hPhe(3-Cl-4-CF3) = N[C@@H](CCc1ccc(C(F)(F)F)c(Cl)c1)C(=O)O; NMePhe(4-Me) = CN[C@@H](Cc1ccc(C)cc1)C(=O)O; NMedβ3hAla = C[C@H](CC(=O)[*:2])N(C)[*:1]; NMeNva(5,5-F2) = CN[C@@H](CCC(F)F)C(=O)O; NMeCha = CN[C@@H](CC1CCCCC1)C(=O)O; NMehLeu = CN[C@@H](CCC(C)C)C(=O)O; Hyp = O=C(O)[C@@H]1C[C@@H](O)CN1; NMeAhp(2) = CCCCC[C@H](NC)C(=O)O; NMeChg = CN[C@H](C(=O)O)C1CCCCC1; NMeI = CC[C@H](C)[C@H](NC)C(=O)O; NMeD = CN[C@@H](CC(=O)O)C(=O)O; NMeL = CN[C@@H](CC(C)C)C(=O)O; NMeNle = CCCC[C@H](NC)C(=O)O; NMeV = CN[C@H](C(=O)O)C(C)C; d(β3hA) = C[C@@H](N)CC(=O)O; NMeS = CN[C@@H](CO)C(=O)O; Morpholide = C1CN(*)CCO1; NMeA = CN[C@@H](C)C(=O)O; Piperidide = C1CCN(*)CC1; Pyrrolidide = C1CCN(*)C1; dNMeA = CN[C@H](C)C(=O)O; Ac5c = NC1(C(=O)O)CCCC1; Aze = O=C(O)[C@@H]1CCN1; Cyclopropyl = C1CC1*; Sar = CNCC(=O)O; Propyl = CCC*

The molecules below were run on Human pancreatic cancer cell line AsPC-1 (assay: Measurement of AsPC-1 cell growth inhibition (AsPC-1 CGI)). Settings: 96 h.
Assay type: cell-based
How it was run: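 AsPC-1 cells in 15% FBS RPMI-1640 were exposed to test compound for 96 hours at 37° C, with CellTiter-Glo as endpoint.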
Molecule `CC[C@H](C)[C@@H]1NC(=O)[C@H](COC2CC2)N(C)C(=O)C[C@@H](C(=O)N2CCCCC2)N(C)C(=O)[C@H](C(C)C)N(C)C(=O)C2(CCCC2)NC(=O)[C@@H]2CCCN2C(=O)[C@H](CCc2ccc(C(F)(F)F)c(Cl)c2)NC(=O)CN(C)C(=O)[C@H](CC2CCCCC2)N(C)C(=O)[C@@H]2CCN2C(=O)[C@H](C)N(C)C1=O` [Compound 1764] ([NMeS](Cyclopropyl)I[NMeA][Aze][NMeCha][Sar][hPhe(3-Cl-4-CF3)]P[Ac5c][NMeV][NMeD]-Piperidide; lactam N-11) has an IC50 of 100 to 500 nM.
`CC[C@H](C)[C@@H]1NC(=O)[C@H](C(C)C)N(C)C(=O)C[C@@H](C(=O)N2CCCCC2)N(C)C(=O)[C@H](C(C)C)N(C)C(=O)C2(CCCC2)NC(=O)[C@@H]2CCCN2C(=O)[C@H](CCc2ccc(C(F)(F)F)c(Cl)c2)NC(=O)CN(C)C(=O)[C@H](CC2CCCCC2)N(C)C(=O)[C@@H]2CCN2C(=O)[C@H](C)N(C)C1=O` [Compound 1767] ([NMeV]I[NMeA][Aze][NMeCha][Sar][hPhe(3-Cl-4-CF3)]P[Ac5c][NMeV][NMeD]-Piperidide; lactam N-11) gave an IC50 of 100 to 500 nM.
`CC[C@H](C)[C@@H]1NC(=O)[C@H](C)N(C)C(=O)C[C@@H](C)N(C)C(=O)[C@H](C(C)C)N(C)C(=O)C2(CCCC2)NC(=O)[C@@H]2CCCN2C(=O)[C@H](CCc2ccc(C(F)(F)F)c(Cl)c2)NC(=O)[C@@H](C)N(C)C(=O)[C@H](CC2CCCCC2)N(C)C(=O)[C@@H]2CCN2C(=O)[C@H](C)N(C)C1=O` [Compound 1773] (cyclo([Ac5c][NMeV][NMedβ3hAla][NMeA]I[NMeA][Aze][NMeCha][dNMeA][hPhe(3-Cl-4-CF3)]P)) showed an IC50 of 100 to 500 nM.
`CCO[C@@H]1C[C@H]2C(=O)NC3(CCCC3)C(=O)N(C)[C@@H](CC(C)C)C(=O)N(C)[C@H](C(=O)N3CCOCC3)CC(=O)N(C)[C@@H](CC(C)C)C(=O)N[C@@H]([C@@H](C)CC)C(=O)N(C)CC(=O)N(C)CC(=O)N(C)[C@@H](CC3CCCCC3)C(=O)N(C)CC(=O)N[C@@H](CCc3ccc(C(F)(F)F)c(Cl)c3)C(=O)N2C1` [Compound 1785] ([NMeL]I[Sar][Sar][NMeCha][Sar][hPhe(3-Cl-4-CF3)][Hyp](Et)[Ac5c][NMeL][NMeD]-Morpholide; lactam N-11) gave an IC50 of 50 to 100 nM.
In the case of `CC(C)C[C@H]1C(=O)N[C@@H](C(C)C)C(=O)N(C)[C@@H](C)C(=O)N2CC[C@H]2C(=O)N(C)[C@@H](CC2CCCCC2)C(=O)N(C)CC(=O)N[C@@H](CCc2ccc(C(F)(F)F)c(Cl)c2)C(=O)N2CCC[C@H]2C(=O)NC2(CCCC2)C(=O)N(C)[C@@H](C(C)C)C(=O)N(C)[C@H](C(=O)N2CCCCC2)CC(=O)N1C` [Compound 1791] ([NMeL]V[NMeA][Aze][NMeCha][Sar][hPhe(3-Cl-4-CF3)]P[Ac5c][NMeV][NMeD]-Piperidide; lactam N-11), the IC50 is reported as 100 to 500 nM.
With `CC[C@H](C)[C@@H]1NC(=O)[C@H](CC(C)C)N(C)C(=O)C[C@@H](C(=O)N2CCCCC2)N(C)C(=O)[C@H](C2CCCCC2)N(C)C(=O)C2(CCCC2)NC(=O)[C@@H]2CCCN2C(=O)[C@H](CCc2ccc(C(F)(F)F)c(Cl)c2)NC(=O)CN(C)C(=O)[C@H](Cc2ccc(C)cc2)N(C)C(=O)[C@@H]2CCN2C(=O)[C@H](C)N(C)C1=O` [Compound 1795] ([NMeL]I[NMeA][Aze][NMePhe(4-Me)][Sar][hPhe(3-Cl-4-CF3)]P[Ac5c][NMeChg][NMeD]-Piperidide; lactam N-11) the IC50 was 50 to 100 nM.
For `CC[C@H](C)[C@@H]1NC(=O)[C@H](CCC(F)F)N(C)C(=O)C[C@@H](C(=O)N2CCCCC2)N(C)C(=O)[C@H](C(C)C)N(C)C(=O)C2(CCCC2)NC(=O)[C@@H]2CCCN2C(=O)[C@H](CCc2ccc(C(F)(F)F)c(Cl)c2)NC(=O)CN(C)C(=O)[C@H](CC2CCCCC2)N(C)C(=O)[C@@H]2CCN2C(=O)[C@H](C)N(C)C1=O` [Compound 1797] ([NMeNva(5,5-F2)]I[NMeA][Aze][NMeCha][Sar][hPhe(3-Cl-4-CF3)]P[Ac5c][NMeV][NMeD]-Piperidide; lactam N-11), the IC50 was 100 to 500 nM.
Work on `CC[C@H](C)[C@@H]1NC(=O)[C@H](CC(C)C)N(C)C(=O)C[C@@H](C)N(C)C(=O)[C@H](C(C)C)N(C)C(=O)C2(CCCC2)NC(=O)[C@@H]2CCCN2C(=O)[C@H](CCc2ccc(C(F)(F)F)c(Cl)c2)NC(=O)CN(C)C(=O)[C@H](CC2CCCCC2)N(C)C(=O)[C@@H]2CCN2C(=O)[C@H](C)N(C)C1=O` [Compound 1800] (cyclo([Ac5c][NMeV][NMedβ3hAla][NMeL]I[NMeA][Aze][NMeCha][Sar][hPhe(3-Cl-4-CF3)]P)) yielded an IC50 of 50 to 100 nM.
Molecule `CC[C@H](C)[C@@H]1NC(=O)[C@H](CC(C)C)N(C)C(=O)C[C@@H](C)NC(=O)[C@H](C(C)C)N(C)C(=O)C2(CCCC2)NC(=O)[C@@H]2CCCN2C(=O)[C@H](CCc2ccc(C(F)(F)F)c(Cl)c2)NC(=O)CN(C)C(=O)[C@H](Cc2ccc(C)cc2)N(C)C(=O)[C@@H]2CCN2C(=O)[C@H](C)N(C)C1=O` [Compound 1801] (cyclo([Ac5c][NMeV][d(β3hA)][NMeL]I[NMeA][Aze][NMePhe(4-Me)][Sar][hPhe(3-Cl-4-CF3)]P)) has an IC50 of 50 to 100 nM.
`CCCOC[C@H]1C(=O)N(C)CC(=O)N[C@@H](CCc2ccc(C(F)(F)F)c(Cl)c2)C(=O)N2CCC[C@H]2C(=O)NC2(CCCC2)C(=O)N(C)[C@@H](C2CCCCC2)C(=O)N(C)[C@H](C(=O)N2CCCCC2)CC(=O)N(C)[C@@H](CC(C)C)C(=O)N[C@@H]([C@@H](C)CC)C(=O)N(C)CC(=O)N(C)CC(=O)N1C` [Compound 1805, (3S,9S,18S,21S,25S,28S,34S)-3-[2-[3-chloro-4-(trifluoromethyl)phenyl]ethyl]-28-cyclohexyl-21-isobutyl-7,10,13,16,22,26,29-heptamethyl-18-[(1S)-1-methylpropyl]-25-(piperidine-1-carbonyl)-9-(propoxymethyl)spiro[1,4,7,10,13,16,19,22,26,29,32-undecazabicyclo[32.3.0]heptatriacontane-31,1′-cyclopentane]-2,5,8,11,14,17,20,23,27,30,33-undecone] ([NMeL]I[Sar][Sar][NMeS](Propyl)[Sar][hPhe(3-Cl-4-CF3)]P[Ac5c][NMeChg][NMeD]-Piperidide; lactam N-11) showed an IC50 of 50 to 100 nM.
For `CC[C@H](C)[C@@H]1NC(=O)[C@H](CC(C)C)N(C)C(=O)C[C@@H](C(=O)N2CCCCC2)N(C)C(=O)[C@H](C(C)C)N(C)C(=O)C2(CCCC2)NC(=O)[C@@H]2CCCN2C(=O)[C@H](CCc2ccc(C(F)(F)F)c(Cl)c2)NC(=O)CN(C)C(=O)[C@H](Cc2ccc(C)cc2)N(C)C(=O)[C@@H]2CCN2C(=O)[C@H](C)N(C)C1=O` [Compound 1828] ([NMeL]I[NMeA][Aze][NMePhe(4-Me)][Sar][hPhe(3-Cl-4-CF3)]P[Ac5c][NMeV][NMeD]-Piperidide; lactam N-11), the IC50 was 100 to 500 nM.
`CC[C@H](C)[C@@H]1NC(=O)[C@H](CCC(C)C)N(C)C(=O)C[C@@H](C(=O)N2CCCCC2)N(C)C(=O)[C@H](C(C)C)N(C)C(=O)C2(CCCC2)NC(=O)[C@@H]2CCCN2C(=O)[C@H](CCc2ccc(C(F)(F)F)c(Cl)c2)NC(=O)CN(C)C(=O)[C@H](CC2CCCCC2)N(C)C(=O)[C@@H]2CCN2C(=O)[C@H](C)N(C)C1=O` [Compound 1833] ([NMehLeu]I[NMeA][Aze][NMeCha][Sar][hPhe(3-Cl-4-CF3)]P[Ac5c][NMeV][NMeD]-Piperidide; lactam N-11) was tested, and the IC50 was 100 to 500 nM.
Molecule `CCO[C@@H]1C[C@H]2C(=O)NC3(CCCC3)C(=O)N(C)[C@@H](CC(C)C)C(=O)N(C)[C@H](C)CC(=O)N(C)[C@@H](CC(C)C)C(=O)N[C@@H]([C@@H](C)CC)C(=O)N(C)CC(=O)N(C)CC(=O)N(C)[C@@H](CC3CCCCC3)C(=O)N(C)CC(=O)N[C@@H](CCc3ccc(C(F)(F)F)c(Cl)c3)C(=O)N2C1` [Compound 1851] (cyclo([Ac5c][NMeL][NMedβ3hAla][NMeL]I[Sar][Sar][NMeCha][Sar][hPhe(3-Cl-4-CF3)][Hyp](Et))) has an IC50 of 20 to 50 nM.
Molecule `CC[C@H](C)[C@@H]1NC(=O)[C@H](CC(C)C)N(C)C(=O)C[C@@H](C(=O)N2CCCC2)N(C)C(=O)[C@H](C2CCCCC2)N(C)C(=O)C2(CCCC2)NC(=O)[C@@H]2CCCN2C(=O)[C@H](CCc2ccc(C(F)(F)F)c(Cl)c2)NC(=O)CN(C)C(=O)[C@H](Cc2ccc(C)cc2)N(C)C(=O)[C@@H]2CCN2C(=O)[C@H](C)N(C)C1=O` [Compound 1852] ([NMeL]I[NMeA][Aze][NMePhe(4-Me)][Sar][hPhe(3-Cl-4-CF3)]P[Ac5c][NMeChg][NMeD]-Pyrrolidide; lactam N-11) has an IC50 of 20 to 50 nM.
With `CCCCC[C@H]1C(=O)N(C)CC(=O)N[C@@H](CCc2ccc(C(F)(F)F)c(Cl)c2)C(=O)N2CCC[C@H]2C(=O)NC2(CCCC2)C(=O)N(C)[C@@H](C(C)C)C(=O)N(C)[C@H](C(=O)N2CCCCC2)CC(=O)N(C)[C@@H](CC(C)C)C(=O)N[C@@H]([C@@H](C)CC)C(=O)N(C)[C@@H](C)C(=O)N2CC[C@H]2C(=O)N1C` [Compound 1854] ([NMeL]I[NMeA][Aze][NMeAhp(2)][Sar][hPhe(3-Cl-4-CF3)]P[Ac5c][NMeV][NMeD]-Piperidide; lactam N-11) the IC50 was 100 to 500 nM.
With `CCCC[C@H]1C(=O)N(C)[C@H](C(=O)N2CCCCC2)CC(=O)N(C)[C@@H](CC(C)C)C(=O)N[C@@H]([C@@H](C)CC)C(=O)N(C)[C@@H](C)C(=O)N2CC[C@H]2C(=O)N(C)[C@@H](CC2CCCCC2)C(=O)N(C)CC(=O)N[C@@H](CCc2ccc(C(F)(F)F)c(Cl)c2)C(=O)N2CCC[C@H]2C(=O)NC2(CCCC2)C(=O)N1C` [Compound 1859] ([NMeL]I[NMeA][Aze][NMeCha][Sar][hPhe(3-Cl-4-CF3)]P[Ac5c][NMeNle][NMeD]-Piperidide; lactam N-11) the IC50 was 100 to 500 nM.
In the case of `CC[C@H](C)[C@@H]1NC(=O)[C@H]([C@@H](C)CC)N(C)C(=O)C[C@@H](C(=O)N2CCCCC2)N(C)C(=O)[C@H](C(C)C)N(C)C(=O)C2(CCCC2)NC(=O)[C@@H]2CCCN2C(=O)[C@H](CCc2ccc(C(F)(F)F)c(Cl)c2)NC(=O)CN(C)C(=O)[C@H](CC2CCCCC2)N(C)C(=O)[C@@H]2CCN2C(=O)[C@H](C)N(C)C1=O` [Compound 1863] ([NMeI]I[NMeA][Aze][NMeCha][Sar][hPhe(3-Cl-4-CF3)]P[Ac5c][NMeV][NMeD]-Piperidide; lactam N-11), the IC50 is reported as 100 to 500 nM.
